Results published in patent US12324827B2, “Combination therapy for the treatment of migraines” (The University of Chicago, priority 2019, dated 2025).

Tests used:
trigeminal ganglion CGRP = experiment: CGRP immunostaining of trigeminal ganglion (V1) in naïve animals 24 hours after N2B IGF-1; assay type: in vivo, rat
Description: 24 hours later animals were re-anesthetized, brains harvested and processed for CGRP immunostaining of the TG. Images were obtained from each animal and image fluorescence intensity quantified via a digital imaging strategy. Three images were measured per animal and the averages recorded. Nasal delivery and image processing was completed while blinded to conditions. Experiments, immunostaining and imaging were done in pairs (i.e., sham and IGF-1) to reduce potential variability. […] This reduction was significant (p<0.001; alpha=0.05; power of 1.00). Scale bar=50 μm. […]
The inventors used computer-based and blinded semi-quantitative digital quantification of immunostaining metrics to test the ability of N2B IGF-1 to impact TS activation. […]
Imaging was performed using a Photometrics self-calibrating digital camera QuantEM-512SC camera (500×500 pixels; Photometrics, Tucson, AZ) run on MetaMorph software (v. 7.0.4; Molecular Devices, Sunnyvale, CA) under blinded conditions (as previously described (13, 20-22). Image exposure, camera gain and thresholding were uniformly set (i.e., equivalently for experimental and sham groups for each imaging metric (i.e., MDA, CGRP and c-fos). Resultant images were digitally stored as TIFF files for subsequent analyses that continued under blinded conditions where image integrated fluorescence intensity was registered using MetaMorph software for MDA and CGRP. […]

[1] = system: cortical spreading depression; experiment: Number of cortical spreading depressions evoked over 90 minutes; assay type: in vivo, rat; conditions: CSD stimulus every nine minutes for 90 minutes, an hour after intravenous injection, n=3
From the text: Animals are stabilized for an hour under anesthesia (1.5% isoflurane in oxygen) after head sutures are removed, eyes coated with Artificial Tears and animals made ready for initiation and recording of CSD under deeper (5%) isoflurane in oxygen, which is then lowered back to 1.5% isoflurane in oxygen during CSD recordings. CSD is initiated as described above one to four hours after antibody infusion. All animals receive nine KCl injections. Then, isoflurane is raised to 5% and animals anesthetized with intraperitoneal ketamine and Xylazine followed quickly by euthanasia via intra-cardiac perfusion with 0.1 mL heparin (1,000 units/ml), then 250 ml of normal saline and finally 250 ml 4% paraformaldehyde in 0.2 M phosphate buffer. Brains plus upper cervical cord and trigeminal ganglia are harvested for measurement of c-fos immunostaining in the trigeminocervical complex and CGRP and oxidative stress (malondialdehyde) levels in the trigeminal ganglion ipsilateral to CSD. Animal groups and endpoints are defined below.
First, the inventors confirmed that there was no significant difference in the number of evoked CSDs between groups (FIG. 16). Sham nasal delivery was, as reported (i.e., 50 μl succinate buffer delivered as 5 μl aliquots to alternating nostrils every two minutes) while under isoflurane inhalational anesthesia (Won and Kraig, 2020). […]

## IGF-1: human recombinant IGF-1 (#191-G1; R&D Systems), 150 μg in 50 μL sodium succinate buffer, delivered nose-to-brain
Trigeminal ganglion CGRP; N2B IGF-1 150 μg versus sham, 24 hours, p<0.001
  reduction of CGRP levels in the trigeminal ganglion of naïve animals: ~75%
Trigeminal ganglion CGRP; n=7/group
  natural logarithm ratio (IGF-1/sham) of CGRP immunostaining, naïve animals: −1.66±0.32
[1]
  number of CSDs evoked: 7±0.41
